Data on one compound can be found in patent US20250186461A1, “METHODS AND COMPOSITIONS FOR TREATING AND/OR PREVENTING HERNIAS” (Northwestern University, priority 2023, published 2025).

The test system of series [1] is LAM fibroblasts from Arom^hum mice. The experiment in a line: Click-iT EdU proliferation assay. The format is cell-based, mouse. As to conditions: 1 μM antagonist; E2 (10 nM)+R5020 (100 nM).
For series [2], the system named is LAM primary fibroblasts from Arom^hum mice. The series is described as follows: mRNA levels of P4/PGR-responsive and fibrotic genes in LAM primary fibroblasts. The format is cell-based, mouse.
For series [3] the following is noted: long-term use; cited from earlier work.
In series [4] the target is T1, aromatase enzyme (Homo sapiens, UniProt P11511).
T1 sequence (P11511 1-503): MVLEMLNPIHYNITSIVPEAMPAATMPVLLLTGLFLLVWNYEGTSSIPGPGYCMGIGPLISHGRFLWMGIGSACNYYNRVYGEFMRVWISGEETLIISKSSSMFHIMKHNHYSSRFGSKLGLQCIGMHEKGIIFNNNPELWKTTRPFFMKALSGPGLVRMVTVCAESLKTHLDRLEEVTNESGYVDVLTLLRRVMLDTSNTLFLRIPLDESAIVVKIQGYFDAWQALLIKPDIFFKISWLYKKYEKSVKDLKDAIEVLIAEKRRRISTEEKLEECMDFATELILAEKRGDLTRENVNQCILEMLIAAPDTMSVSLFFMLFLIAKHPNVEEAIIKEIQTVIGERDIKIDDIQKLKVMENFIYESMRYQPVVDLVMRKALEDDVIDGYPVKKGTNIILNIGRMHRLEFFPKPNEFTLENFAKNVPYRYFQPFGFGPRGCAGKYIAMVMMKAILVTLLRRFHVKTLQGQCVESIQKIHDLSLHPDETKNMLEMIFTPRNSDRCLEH
The settings on record: cited from earlier work.

For series [5], the target named is T2, glucocorticoid receptor (GR) (Homo sapiens, UniProt P04150).
T2 sequence (P04150 1-777): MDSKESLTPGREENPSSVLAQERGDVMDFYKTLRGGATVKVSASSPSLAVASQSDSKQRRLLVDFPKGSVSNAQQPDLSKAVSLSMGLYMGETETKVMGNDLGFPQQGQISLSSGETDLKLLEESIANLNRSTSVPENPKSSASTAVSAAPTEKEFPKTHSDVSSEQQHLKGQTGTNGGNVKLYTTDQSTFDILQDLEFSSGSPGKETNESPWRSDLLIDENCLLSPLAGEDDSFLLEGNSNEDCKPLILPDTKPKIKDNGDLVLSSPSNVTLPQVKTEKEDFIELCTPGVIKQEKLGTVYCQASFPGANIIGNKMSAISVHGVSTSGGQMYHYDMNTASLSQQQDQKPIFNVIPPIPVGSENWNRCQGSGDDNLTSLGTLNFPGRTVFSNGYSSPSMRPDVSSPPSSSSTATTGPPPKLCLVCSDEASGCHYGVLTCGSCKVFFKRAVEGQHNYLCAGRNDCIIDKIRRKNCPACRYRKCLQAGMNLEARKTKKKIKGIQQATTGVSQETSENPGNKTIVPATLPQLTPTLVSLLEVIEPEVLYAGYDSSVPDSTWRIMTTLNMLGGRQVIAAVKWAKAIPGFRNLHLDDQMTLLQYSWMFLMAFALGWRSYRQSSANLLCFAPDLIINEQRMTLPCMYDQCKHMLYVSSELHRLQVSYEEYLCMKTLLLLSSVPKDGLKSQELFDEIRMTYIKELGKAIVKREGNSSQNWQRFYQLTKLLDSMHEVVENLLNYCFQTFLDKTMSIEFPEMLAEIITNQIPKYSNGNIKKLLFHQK
The settings on record: cited from earlier work.

Series [6] has as its target T3, PGR (Homo sapiens, UniProt P06401).
T3 sequence (P06401 1-933): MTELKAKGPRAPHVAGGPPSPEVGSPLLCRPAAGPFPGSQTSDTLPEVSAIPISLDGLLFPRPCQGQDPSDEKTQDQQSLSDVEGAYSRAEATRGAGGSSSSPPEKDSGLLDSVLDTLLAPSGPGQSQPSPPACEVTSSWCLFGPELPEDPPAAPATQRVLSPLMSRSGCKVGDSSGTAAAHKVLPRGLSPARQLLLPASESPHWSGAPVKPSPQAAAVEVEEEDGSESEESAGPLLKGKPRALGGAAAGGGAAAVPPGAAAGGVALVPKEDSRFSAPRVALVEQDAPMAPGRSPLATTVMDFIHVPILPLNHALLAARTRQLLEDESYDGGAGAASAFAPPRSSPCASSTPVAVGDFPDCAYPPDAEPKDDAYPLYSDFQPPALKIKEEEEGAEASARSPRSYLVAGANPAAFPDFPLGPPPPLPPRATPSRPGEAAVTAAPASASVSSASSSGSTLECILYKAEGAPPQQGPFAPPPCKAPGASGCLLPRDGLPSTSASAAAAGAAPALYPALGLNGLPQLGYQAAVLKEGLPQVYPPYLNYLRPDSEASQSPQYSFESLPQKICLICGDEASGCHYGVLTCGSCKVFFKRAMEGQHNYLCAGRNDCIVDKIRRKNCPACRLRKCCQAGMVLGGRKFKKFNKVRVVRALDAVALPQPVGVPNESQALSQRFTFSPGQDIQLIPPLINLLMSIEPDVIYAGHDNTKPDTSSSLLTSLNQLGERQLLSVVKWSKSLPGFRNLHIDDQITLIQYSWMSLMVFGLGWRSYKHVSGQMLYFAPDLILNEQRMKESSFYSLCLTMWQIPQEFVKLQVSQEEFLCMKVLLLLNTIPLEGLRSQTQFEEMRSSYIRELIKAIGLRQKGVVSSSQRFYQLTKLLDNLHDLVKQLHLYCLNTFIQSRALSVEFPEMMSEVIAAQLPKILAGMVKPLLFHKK
The settings on record: cited from earlier work.

Entries after “also recorded” stand apart in the source; their conditions may differ.

As for `CN(C)c1ccc([C@H]2C[C@]3(C)[C@@H](CC[C@]3(O)CCCO)[C@@H]3CCC4=CC(=O)CCC4=C32)cc1` [ZK299, Onapristone], the “inhibition of E2+R5020-stimulated LAM fibroblast proliferation” value in series [1] is reported as “inhibited; also recorded: blocked”. The “E2+R5020-induced expression of P4/PGR-responsive (Greb1, Cyp7b1) and fibrotic genes (Adamtsl1, Col1a1, Col14a1)” value in series [2] (1 μM antagonist, pretreated 2 h before E2 (10 nM)+R5020 (100 nM)) is listed as “significantly decreased; also recorded: strongest inhibition”. In addition, the “E2+R5020-stimulated expression of Col1a1 and Col12a1, blockade” value in series [2] (pretreatment with 1 μM antagonist) was “blocked”. Further, the liver toxicity entry in series [3] is on record as “significant liver toxicity”. In series [4], the “inhibition of aromatase enzyme activity” value is on record as “weak aromatase inhibitor”. In series [5], the anti-glucocorticoid activity result was “minimal or no antiglucocorticoid properties”. The “P4/PGR antagonism and PGR selectivity” value in series [6] is listed as “highly PGR-selective pure P4 antagonist”.
